According to patent US9120746B2, “Crystalline form of a 3-phenoxymethylpyrrolidine compound” (Theravance Biopharma R&D IP, LLC, priority 2010, dated 2015):
Counter-ions that a name gives are not always drawn. Like-named read-outs stand apart in the source and are kept apart here.

Experiments:
[1] = biological target: T1, hSERT (Homo sapiens, UniProt P31645); assay: hSERT membrane radioligand binding assay (3H-citalopram); conditions: 1.0 nM 3H-citalopram, HEK-293 hSERT membranes; read-out: SERT pKi (converted)
T1 construct: expressed in transfected cells; host or cells: HEK-293 derived cell line, stably transfected
Method: (§1) Membrane radioligand binding assays were used to measure inhibition of labeled ligand (^3H-citalopram or ^3H-nisoxetine or ^3H-WIN35428) binding to membranes prepared from cells expressing the respective human recombinant transporter (hSERT or hNET or hDAT) in order to determine the pKi values of test compounds at the transporters.
(§2) Recombinant human embryonic kidney (HEK-293) derived cell lines stably transfected with hSERT or hNET, respectively, were grown in Dulbecco's Modified Eagle's Medium (DMEM) medium supplemented with 10% dialyzed FBS (for hSERT) or FBS (for hNET), 100 μg/ml penicillin, 100 μg/ml streptomycin, 2 mM L-glutamine and 250 μg/ml of the aminoglycoside antibiotic G418, in a 5% CO2 humidified incubator at 37° C. When cultures reached 80% confluence, the cells were washed thoroughly in PBS (without Ca^2+ and Mg^2+) and lifted with 5 mM EDTA in PBS. […] Protein concentration of the membrane suspension was determined using a Bio-Rad Bradford Protein Assay kit. […]
(§3) Stock solutions (10 mM in DMSO) of test compound were prepared and serial dilutions made using Dilution Buffer (50 mM Tris-HCl, 120 mM NaCl, 5 mM KCl, pH 7.4, 0.1% BSA, 400 μM ascorbic acid). Non-specific radioligand binding was determined in the presence of 1 μM duloxetine, 1 μM desipramine or 10 μM GBR12909 (each in Dilution Buffer) for the hSERT, hNET or hDAT assays, respectively. […]

[2] = biological target: T2, hNET (Homo sapiens, UniProt P23975); assay: hNET membrane radioligand binding assay (3H-nisoxetine); conditions: 1.0 nM 3H-nisoxetine, HEK-293 hNET membranes; read-out: NET pKi (converted)
T2 construct: expressed in transfected cells; host or cells: HEK-293 derived cell line, stably transfected
Method: as §1, §2, §3

[3] = biological target: T1, hSERT; assay: hSERT neurotransmitter uptake assay (3H-5-HT); format: cell-based; conditions: 3H-5-HT 20 nM, HEK-293 hSERT cells; read-out: serotonin reuptake inhibition pIC50 (converted)
Method: (§4) Neurotransmitter uptake assays were used to measure inhibition of ^3H-serotonin (^3H-5-HT), ^3H-norepinephrine (^3H-NE), and ^3H-dopamine (^3H-DA) uptake into cells expressing the respective transporter (hSERT, hNET or hDAT) in order to determine the pIC50 values of test compounds at the transporters.
(§5) HEK-293 derived cell lines stably-transfected with hSERT, hNET, or hDAT, respectively, were grown in DMEM medium supplemented with 10% dialyzed FBS (for hSERT) or FBS (for hNET and hDAT), 100 μg/ml penicillin, 100 μg/ml streptomycin, 2 mM L-glutamine and 250 μg/ml of the aminoglycoside antibiotic G418 (for hSERT and hNET) or 800 ug/ml (for hDAT), in a 5% CO2 humidified incubator at 37° C. When cultures reached 80% confluence, the cells were washed thoroughly in PBS (without Ca^2+ and Mg^2+) and lifted with 5 mM EDTA in PBS. […]
(§6) Neurotransmitter uptake assays were performed in a 96-well assay plate in a total volume of 400 μl assay buffer (Krebs-Ringer bicarbonate buffer containing HEPES (10 mM), CaCl2 (2.2 mM), ascorbic acid (200 μM) and pargyline (200 μM), pH 7.4) with 1.5×10^4 and 2.5×10^4 cells, for SERT, NET, and DAT, respectively. […] Non-specific neurotransmitter uptake was determined in the presence of 2.5 μM duloxetine, 2.5 μM desipramine, or 10 uM GBR-12909 (each in Dilution Buffer) for the hSERT, hNET, or hDAT assays, respectively. […]

[4] = biological target: T2, hNET; assay: hNET neurotransmitter uptake assay (3H-NE); format: cell-based; conditions: 3H-NE 50 nM, HEK-293 hNET cells; read-out: norepinephrine reuptake inhibition pIC50 (converted)
Method: as §4, §5, §6

[5] = Aqueous solubility; format: physicochemical; conditions: read-out: SOLUBILITY CONCENTRATION
Excerpt: The crystalline hydrochloride salt of the invention has very good aqueous solubility in a wide pH range: […]

[6] = Solution stability (HPLC peak area); format: physicochemical; conditions: for Change in HPLC Peak Area: 10 μm/mL, 3 days at 40° C.
[7] = Dynamic moisture sorption (DMS) assessment; format: physicochemical; conditions: exposed to up to 85% relative humidity, 25° C.
Method: A dynamic moisture sorption (DMS) assessment (also known as a moisture sorption-desorption profile) was performed for the crystalline hydrochloride salt of the invention using a VTI atmospheric microbalance, SGA-100 system (VTI Corp., Hialeah, Fla. 33016). A sample size of approximately 2.73 mg was used and the humidity was set at the ambient value at the start of the analysis. The DMS analysis consisted of a scan rate of 5% relative humidity/step over the full humidity range of 2% relative humidity to 90% relative humidity. The DMS run was performed isothermally at 25° C.

[8] = Thermal analysis (DSC, TGA); format: physicochemical
Method: Differential scanning calorimetry (DSC) was performed using a TA Instruments
Model Q-100 module with a Thermal Analyst controller. Data were collected and analyzed using TA Instruments Thermal Solutions software. A 1.22 mg sample of the crystalline hydrochloride salt of the invention was accurately weighed into a covered aluminum pan. After a 5 minute isothermal equilibration period at 22° C., the sample was heated using a linear heating ramp of 10° C./min from 22° C. to 250° C.

[9] = Deliquescence on exposure to atmospheric moisture; format: physicochemical; conditions: exposed to atmospheric moisture

T1 sequence (P31645 whole entry): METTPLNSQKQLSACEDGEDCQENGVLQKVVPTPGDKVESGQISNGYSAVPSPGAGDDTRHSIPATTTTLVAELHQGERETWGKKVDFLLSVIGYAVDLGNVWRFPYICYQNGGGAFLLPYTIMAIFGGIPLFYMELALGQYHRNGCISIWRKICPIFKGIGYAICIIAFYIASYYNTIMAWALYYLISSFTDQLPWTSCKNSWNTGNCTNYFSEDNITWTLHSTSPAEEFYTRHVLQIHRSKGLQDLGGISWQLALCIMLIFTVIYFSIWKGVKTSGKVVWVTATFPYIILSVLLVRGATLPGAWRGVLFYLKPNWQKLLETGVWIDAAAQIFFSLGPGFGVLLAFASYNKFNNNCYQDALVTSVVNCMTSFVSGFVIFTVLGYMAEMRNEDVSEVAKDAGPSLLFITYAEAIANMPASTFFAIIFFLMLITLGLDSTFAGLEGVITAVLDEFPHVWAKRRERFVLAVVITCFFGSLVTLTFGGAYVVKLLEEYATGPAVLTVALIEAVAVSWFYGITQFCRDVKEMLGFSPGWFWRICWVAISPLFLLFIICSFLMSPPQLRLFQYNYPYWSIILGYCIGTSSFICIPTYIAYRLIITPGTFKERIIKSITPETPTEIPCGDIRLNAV
T2 sequence (P23975 whole entry): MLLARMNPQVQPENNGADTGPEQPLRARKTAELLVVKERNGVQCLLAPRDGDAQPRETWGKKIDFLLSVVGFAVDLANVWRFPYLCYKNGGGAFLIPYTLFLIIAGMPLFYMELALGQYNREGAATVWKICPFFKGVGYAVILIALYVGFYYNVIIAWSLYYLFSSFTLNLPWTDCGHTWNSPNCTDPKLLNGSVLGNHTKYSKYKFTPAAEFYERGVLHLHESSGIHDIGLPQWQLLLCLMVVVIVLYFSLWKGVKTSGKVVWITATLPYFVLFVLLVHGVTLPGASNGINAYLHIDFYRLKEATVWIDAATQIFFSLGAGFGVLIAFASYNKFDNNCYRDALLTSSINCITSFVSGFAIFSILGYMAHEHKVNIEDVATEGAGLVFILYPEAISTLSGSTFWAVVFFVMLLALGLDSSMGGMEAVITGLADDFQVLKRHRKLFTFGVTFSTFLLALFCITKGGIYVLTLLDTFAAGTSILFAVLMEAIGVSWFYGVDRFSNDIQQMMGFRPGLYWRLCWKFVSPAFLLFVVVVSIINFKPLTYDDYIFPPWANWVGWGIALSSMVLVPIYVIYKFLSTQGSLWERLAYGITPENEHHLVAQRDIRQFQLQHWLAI

Ki [1]	Ki [2]	IC50 [3]	IC50 [4]	solubility ([5]; aqueous HCl, simulated gastric fluid, HCl pH 2.0)	solubility ([5]; phosphate buffer, aqueous buffer, 50 mM phosphate-buffered pH 7.4)	solubility ([5]; un-buffered water)	Change in HPLC Peak Area ([6]; 50 mM citric acid pH 2.2)	Change in HPLC Peak Area ([6]; 50 mM phosphate-buffered pH 7.4)	stability at room temperature ([6]; room temperature, 30 days, concentrations of 1 mg/mL and 10 mg/mL)	weight gain [7]	deliquescence [9]	Structure (SMILES)	thermal stability (DSC) ([8]; heating 10° C./min from 22° C. to 250° C.)	weight loss (TGA) ([8]; room temperature to 200° C.)
≤ 0.01 µM	≤ 0.01 µM	≤ 0.01 µM	≤ 10 nM	–	–	–	–	–	–	–	–	CC(C)[C@H](Oc1ccc(Cl)cc1)[C@H]1CCNC1 [Example 1 (TFA salt), (S)-3-[(S)-1-(4-Chlorophenoxy)-2-methylpropyl]pyrrolidine]	–	–
–	–	–	–	> 10000 µg/mL	> 10000 µg/mL	> 10000 µg/mL	100.5%	100.0%	no degradation	less than 1.0%	not to be deliquescent	CC(C)[C@H](Oc1ccc(Cl)cc1)[C@H]1CCNC1 [Example 1, Crystalline Hydrochloride Salt of (S)-3-[(S)-1-(4-Chlorophenoxy)-2-methylpropyl]pyrrolidine]	no significant thermal decomposition below about 200 °C	did not lose any significant amount of weight
